Reference: patent EP0110955B1, “BRAIN-SPECIFIC DRUG DELIVERY” (UNIVERSITY OF FLORIDA, priority 1982, dated 1983)

What was measured:
[1] = Concentration of compound 6a in brain and blood after parenteral administration of 5c; type: in vivo, Male Sprague-Dawley rats; details: after administration of 5c, rat
Procedure: The dihydropyridine derivative (5c) was then selected for the in vivo study. A solution in DMSO (dimethylsulfoxide) was injected through the jugular vein to a group of male Sprague-Dawley rats which were then sacrificed at various time intervals; their blood and brains were analyzed for the quaternary percursor of dopamine (6a). The in vivo dopaminergic activities of the selected compounds 5c vs. 6a were then determined.
Male Sprague-Dawley rats of average weight of 150 ± 10g were used. The rats were anesthetized with IM injection of Inovar and the jugular was exposed. Compound 5c was injected intrajugularly in the form of 10% solution in DMSO at a dose of 64.2 mg/kg (equivalent to 50 mg/kg compound 6a). The injection was given at a rate of 24 µl/min using a calibrated infusion pump. […] The weighed brain was homogenized with 0.5 ml of distilled water, 3 ml of acetonitrile was added and the mixture was rehomogenized thoroughly, centrifuged, filtered and then analyzed for compound 6a using the HPLC method. The tubes containing the blood were shaken vigorously, centrifuged, decanted and also analyzed for compound 6a using the HPLC method. Quantitation was done by using a recovery standard curve obtained by introducing a known amount of 6a in either brain homogenate or blood and then treated in the same manner. […]

[2] = Chemical oxidation by hydrogen peroxide and silver nitrate; type: physicochemical; details: H2O2 or alcoholic AgNO3 solution
Procedure: The stability of the 1,4-dihydropyridine derivatives (5) was determined in the presence of the oxidizing agents, alcoholic AgN03 and hydrogen peroxide. The in vitro rates of oxidation of the 1,4-dihydropyridine derivative (5c) in 80% plasma, 20% brain homogenate, 20% liver homogenate and in whole blood were determined.
To 10 ml of 30% H202 was added 0.2 g of the dihydropyridine derivative (products of Examples 5 or 8). The mixture was stirred and samples were taken to check the UV spectrum.
To 5 ml of saturated methanolic AgN03 solution was added 1 ml of 5% methanolic solution of the dihydropyridine derivative. The mixture was shaken and left for 5 min for complete precipitation of silver, centrifuged and an aliquot was taken to check the UV spectrum. Complete oxidation to the quaternary salts was observed.

[3] = Enzymatic hydrolytic cleavage and rate of oxidation of compound 5c in rat liver homogenate (HPLC); type: in vitro ADME, Sprague-Dawley rats; details: rat, pH 7.4; 20% liver homogenate, 37°C, pseudo first order; read-out: apparent half-lives for the disappearance
Procedure: (§1) A high pressure liquid chromatography (HPLC) method was developed for the studies of the degradation of the dihydropyridine dopamine derivative. The chromatographic analysis was performed on a component system consisting of a Waters Associate Model 6000A solvent delivery system, Model U6K injector and Model 440 dual channel absorbance detector operated at 254 and 280 nm. A 30 cm x 3.9 mm (internal diameter) reverse phase µBondapak C18 column (Waters Associates), operated at ambient temperature, was used for all separations. The mobile phase used for the separation of the dihydropyridine derivative, its degradation products and oxidation products consisted of 0.005 M solution of 1-heptanesul- fonic acid sodium salt (PIC B-7 Eastman Kodak) in CH3CN; 0.01 M aqueous dibasic ammonium phosphate (2.5:1). A peak was always shown at a retention time of 2.2 min which is believed to be a monodeacylated dihydropyridine derivative, since it eventually did result in 6a.
The liver homogenate was prepared by the following method. Three Sprague-Dawley rats were killed by decapitation and the livers were removed, weighed and homogenized by tissue homogenizer in 0.11 M aqueous phosphate buffer, pH 7.4, to make 20% liver homogenate. […] When all samples had been collected, they were centrifuged and each supernatant was filtered through Whatman 1 filter paper and analyzed by HPLC.

[4] = system: brain-dopamine concentrations; assay: Changes in brain-dopamine concentrations after intrajugular administration of 5c; type: in vivo; details: 5c administered intrajugularly, some of the rats, others practically none
Procedure: To determine whether dopamine itself was finally released in the brain upon completion of the aforesaid complex delivery process, 5c was administered intrajugularly and changes in brain-dopamine concentrations following that administration were studied. […] It is known that dopamine and its agonists decrease prolactin secretion following their binding to stereospecific receptors located on lactophors in the anterior pituitary (AP) gland [G.P. Mueller, J.W. Simpkins, J. Meites and K.E. Moore, Neuroendocrinology, 20, 121 (1976); W. Wuttke, E. Cassell and J Meites, Endocrinology, 88, 737 (1971); J.A. Clemens, E.B. Smalstig and C.J. Shaar, Acta Endocrinol., 79, 230 (1975)]. This effect is dose- dependent and it can also be observed in vitro, incubating anterior pituitaries with dopamine or its agonists [R.M. MacLeod Ed. L. Martini and W.F. Ganong, Raven Press].

[5] = Enzymatic hydrolytic cleavage and rate of oxidation of compound 5c in human blood (HPLC); type: in vitro ADME; details: whole citrated blood, 37°C, pseudo first order, read-out: apparent half-lives for the disappearance
Procedure: as §1
The freshly collected heparinized blood was obtained at the Civitan Regional Blood Center, Inc. (Gainesville, Florida). The blood was stored in a refrigerator and used the next day. […] When all samples had been collected, they were centrifuged and the supernatants were filtered using Whatman 4 filter paper and analyzed by HPLC.

Compound: CN1C=CCC(C(=O)NCCc2ccc(OC(=O)C(C)(C)C)c(OC(=O)C(C)(C)C)c2)=C1 [5c, 1-Methyl-3-(N-[β-(3,4-dipivalyloxyphenyl)-ethyl]}carbamoyl-1,4-dihydropyridine]
- formation of O-methyl metabolites (9, 10) in the brain [1]: No formation of O-methyl metabolites (9, 10) could be detected
- oxidation to the corresponding quaternary salt 6c [2]: quantitatively oxidized
- half-life at 900 µM [3]: 6 min
- increase in the dopamine concentrations [4]: up to threefold increase
- half-life at 900 µM [5]: 18 min
